Assay results taken from patent publication US4004976A, “Process for recovering the main sapogenins from the roots of rhizomes of helleborus” (Deutsche Gold- und Silber-Scheideanstalt vormals Roessler, priority 1974, dated 1977).

Assays:
[1] = system: indometacin ulcer of rats; assay: Indometacin ulcer of rats (method of John and Adrian modified by Wilhelmi), ulcer protecting effect; format: in vivo, rat (albino rats of the strain SIV 50); settings: for Ulcer Protecting Effect: oral, 1 h after indometacin 20 mg/kg, evaluated 24 h after indometacin
Description: These tests were carried out according to the method of John and Adrian modified by Wilhelmi on the indometacin ulcer of rats (see Arneimittelforschung Vol. 19 (1969) pages 45 et seq.)
The determination is carried out in the following manner.
Albino rats of the strain SIV 50 (S. Ivanovas, Kisslegg/Allgau) having an initial weight of 250 to 300 grams were held in controlled temperature rooms at 20° to 22° C. in wire cages (Ebeco, Type 3 double width) on a standard diet (Altromin). After 48-hour feeding intervals the animals received 20 mg/kg rat of indometacin in 1.5% tragacanth (1 ml tragacanth solution per 100 grams of rat) applied intragastrally.
One hour after giving the indometacin there was dispensed orally to the animals the test substance. The rats remain otherwise fasting (water ad libitum).
Twenty-four hours after giving the indometacin the animals were killed with CO2. The stomach was resected, opened along the great curvature and washed under flowing water.
The ulcerative changes appear as dark, point or stria shaped spots on the mucosa. The evaluation was done according to the method of Munchow, Arneimittelforschung Vol. 4 (1954) pages 341-344.

central nervous system = assay: Muscle relaxing and central nervous system influencing activity; settings: in words, no test described
[2] = Acute toxicity, LD 50 (method of Miller and Tainter); settings: in vivo; mouse, oral application
Description: The acute toxicity of the compound of the invention in the mouse (expressed by LD 50 mg/kg; method of Miller and Tainter; Proc. Soc. Exper. Biol. a. Med. Vol. 57 (1944) pages 261 et seq.) on oral application, for example, is above 6000 mg/kg.

## C=C1CC[C@@]2(OC1)O[C@H]1C[C@H]3[C@@H]4CC=C5C[C@@H](O)C[C@@H](O)[C@]5(C)[C@H]4[C@H](O)C[C@]3(C)[C@H]1[C@@H]2C [compound of the invention, spiro-5,25(27)-diene-1β,3β,11α-triol]
[1]; Daily Dosage 50 mg/kg, rat
  Ulcer Protecting Effect: 58%
[1]; Daily Dosage 100 mg/kg, rat
  Ulcer Protecting Effect: 78%
[1]; Daily Dosage 200 mg/kg, rat
  Ulcer Protecting Effect: 80%
[1]; in words
  ulcer healing activity: has an ulcer healing activity
[1]; indometacin ulcers of rats, in words
  antiulcer activity: good antiulcer activity
[1]; po, 24 h, orally, indometacin ulcer, rat, read-out: lowest effective dosage
  minimal effective dose: 50 mg/kg
[1]; versus known medicine Biogastrone, in words
  antiulcer activity compared with Biogastrone: comparable to the activity of the known medicine Biogastrone
Central nervous system
  muscle relaxing and central nervous system influencing activity: muscle relaxing and central nervous system influencing activity has been established
[2]
  LD50: > 6000 mg/kg
